From US5565448A, “Medicament” (SmithKline Beecham Corporation, priority 1994, dated 1996)

Legend:
rabbit aortic strip = assay: Inhibition of PDBu-induced contraction of rabbit aortic strip; type: cell-based; conditions: Oryctolagus cuniculus; PDBu as agonist
Text: The effect of compounds of Formula (I) in this assay is examined using the protocol in Ohlstein, et al., J. Pharm. Exp. Ther., 250:548 (1989), except PDBu and compound B are substituted in place of the agonist and antagonist, respectively, therein described.

[1] = system: rat cerebellar granule cells; assay: Inhibition of glutamate-induced neurotoxicity in rat cerebellar granule cells; type: cell-based
Text: The effect of compounds of Formula (I) in this assay is examined using the protocol in Lysko, et al, Brain Research, 499:258 (1989).

platelets = assay: Inhibition of PDBu-induced serotonin release from platelets; type: cell-based
Text: The effect of compounds of Formula (I) in this assay is examined using the protocol in Sano, et al., J. Biol. Chem., 258:2010 (1983).

Jurkat cells = assay: Inhibition of PHA and ionophore-induced IL-2 production in Jurkat cells; type: cell-based; conditions: Homo sapiens, IL-2 ELISA
Experimental: IL-2 produced in response to PHA and ionophore in the absence or presence of compound B is assayed by an ELISA kit purchased from Advanced Magnetics, Cambridge, MA (Human 1L-2-specific ELISA). The procedure is described by Moriya, N., Journal of Immunoassay, 8:131 (1987) and Robb, R., Hunam, J., Methods in Enzymology: Immunochemical Techniques, Section H (G.Disagato, J. Langone, and H. vanVanakis, eds.: Academic Press, N.Y., vol. 116, p. 493. 1985).

HIV-infected cells = assay: HIV syncytial assay; type: cell-based; conditions: syncytial co-cultivation assay
Experimental: Chronically infected cells are employed as cell fusion centers in a rapid syncytial co-cultivation assay with uninfected […] target cells. Syncytia develop overnight, in contrast to the 3 to 7 days required for the cytopathic effect to occur in similar cultures infected with cell-free virus preparations. Inhibition of fusion by soluble CD4 and other potential anti-HIV compounds is assessed using the assay described by Truneh, et al., Cellular Immunology, 131:98 (1990).

[2] = system: angiotensin II pressor response; assay: Inhibition of pressor response to angiotensin II in conscious rats; type: in vivo; conditions: Rattus norvegicus, intravenous, read-out: ED50, dose producing 50% inhibition of the control response to angiotensin II
Experimental: Rats are prepared with indwelling femoral arterial and venous catheters and a stomach tube (Gellai, et al., Kidney Int. 15:419, 1979). Two to three days following surgery the rats are placed in restrainers and blood pressure is continuously monitored from the arterial catheter with a pressure transducer and recorded on a polygraph. The change in mean arterial pressure in response to intravenous injections of […] angiotensin II is compared at various time points prior to and following the administration of the compounds intravenously at doses of 0.1 to 300 mg/kg. The dose of compound needed to produce 50% inhibition of the control response to angiotensin II (ED50) is used to estimate the potency of the compounds. The ED50 of compound B is about 30 mg/kg.

[3] = system: mean arterial blood pressure; assay: Antihypertensive activity in conscious spontaneously hypertensive (SHR) rats; type: in vivo; conditions: Rattus norvegicus, intravenous, read-out: ED25, dose needed to reduce mean arterial pressure by 25 mm Hg
Experimental: The antihypertensive activity of the compounds is measured by their ability to reduce mean arterial blood pressure in conscious, spontaneously hypertensive (SHR) rats. The animals are prepared with indwelling vascular catheters are described above (A) for the administration of compounds and direct recording of blood pressure. After complete recovery from surgery (4-5 days), the rats are placed into retainers to which they have become accustomed. Mean arterial pressure is recorded continuously prior to and following the intravenous administration of compounds. The dose of compound needed to reduce mean arterial pressure by 25 mm Hg (ED25) is used as an estimate of potency. The ED25 for compound B is about 15mg/kg.

hindpaw inflammation = assay: Adjuvant-induced arthritis in Lewis rats; type: in vivo; conditions: Rattus norvegicus, ip; AA Lewis rats, daily intraperitoneal administration; read-out: ED50, suppression of hindpaw inflammation
Experimental: Adjuvant-induced arthritis (AA) was produced in Lewis rats by a single intradermal injection of 0.75 mg of Mycobacterium butyricum in light paraffin oil, into the base of the tail. The adjuvant arthritis occurs after a delay of approximately 10 days and is characterized by inflammation of the hindpaws. In prophylatic studies, compounds were administered daily for 5 days, beginning on the sixth day after adjuvant injection. Hindpaw volumes were measured plethysmographically on days 14, 17 and 20. [formula]
Daily intraperitoneal administration of compound B to AA rats produced a marked, dose related suppression of hindpaw inflammation with an ED50 of <10 mg/kg.

TNF = assay: Endotoxic shock model: TNF production and survival in endotoxin-treated rats; type: in vivo, rat
Text: 6, 1991 and in Hanna, Patent Cooperation Treaty Application Number WO 90/15534, published Dec. 27, 1990.

NC1=NC(=O)/C(=C2\CCNC(=O)c3[nH]c(Br)cc32)N1 [Compound B, 4-(2-amino-4-oxo-2-imidazolin-5-ylidene)-2-bromo-4,5,6,7-tetrahydropyrrolo(2,3-c)azepine-8-one]
IC50 (rabbit aortic strip): 500 to 800 nM | IC50 [1]: ~600 nM | Inhibition of PDBu-induced serotonin release from platelets (platelets): showed inhibition | IC50 (Jurkat cells): ~2000 nM | Inhibition of fusion of HIV-infected cells to CD4-positive, uninfected cells (HIV-infected cells): inhibited the fusion | ED50 [2]: ~30 mg/kg | ED (25 mm Hg) [3]: ~15 mg/kg | ED50 (hindpaw inflammation): < 10 mg/kg | Inhibition of the production of TNF (TNF): inhibited the production of TNF | Survival rate of animals with endotoxic shock (TNF): increased the survival rate
